Results from patent US20260297129A1, “PEPTIDES AS SELECTIVE IL-23 RECEPTOR INHIBITORS” (SANOFI, priority 2023, published 2026).
Converted amounts (≈) assume the structure as drawn. Where two headings read alike, the source gives them in different places. Blank lines part the entries; values can stand above or below the compound they belong to. Numbered stars: 1 amine (or outer) side, 2 acyl side, 3 side chain; on linkers, the order of the positions; unused ones are H or OH. Bridge positions count the residues as written; N and C are the ends. Square brackets hold non-standard residues; d marks the D form. Peptide text beside a SMILES is read from it. * marks the point of attachment. Lys(Me,(CH2)4NMe(CH2)5CO) = CN(CCCCCC(=O)[*:3])CCCCN(C)CCCC[C@H](N[*:1])C(=O)[*:2]; Lys(Me,(CH2)4NMe(CH2)4CO) = CN(CCCCC(=O)[*:3])CCCCN(C)CCCC[C@H](N[*:1])C(=O)[*:2]; Trp(7-Me) = Cc1cccc2c(C[C@H](N)C(=O)O)c[nH]c12; Trp(1-Me) = Cn1cc(C[C@H](N)C(=O)O)c2ccccc21; αMeLys(Me2) = CN(C)CCCC[C@](C)(N)C(=O)O; 2Nal = N[C@@H](Cc1ccc2ccccc2c1)C(=O)O; 3Pal = N[C@@H](Cc1cccnc1)C(=O)O; Aun = NCCCCCCCCCCC(=O)O; Thp = NC1(C(=O)O)CCOCC1; Me2NCH2CH2 = CN(C)CC*; Aib = CC(C)(N)C(=O)O; Sar = CNCC(=O)O

Columns and labels:
[1] = Solubility of peptide compounds in buffer formulations (Table 5); format: physicochemical; settings: target 1 mg/ml
Protocol: Prior to the solubility measurement of a peptide batch, its purity was determined through UHPLC/MS method A.
(§1) For solubility testing the target concentration was 1 mg pure compound/ml. Therefore, solutions from solid samples were prepared in a buffer system at a concentration of 1 mg/mL compound. The solid samples were obtained by drying down aliquots of a freshly prepared dimethyl sulfoxide stock solution using a THERMO SPEEDVAC vacuum centrifuge. The dry down time was 3 hours.
The following buffer systems were applied: • Solubility buffer system A) 50 mM HCl pH 1.2 • Solubility buffer system B) 50 mM phosphate buffer pH 6.5 • Solubility buffer system C) 50 mM phosphate buffer pH 7.4 • UHPLC-UV was performed using analytical method A after 2 hours of gentle agitation from the filtered (0.45 μm filter plates) solutions, which were obtained by 10 mins of centrifugation forced filtration at 1500 RCF (relative centrifugal acceleration).
The solubility was determined by the comparison of the UV peak area of 2 μL-injections of a buffered sample diluted 1:10 with a standard curve of a dimethyl sulfoxide reference sample of known concentration. The different extinction coefficients were taken into account for the calculation.

[2] = Protease stability in simulated gastric fluids (FaSSGF) (Table 7); format: in vitro ADME; settings: fassgf with pepsin, 60 min, 37° C., read-out: Remaining percentage of peptide compound, FaSSGF 60 (min)
Protocol: (§2) Studies were carried out in simulated intestinal fluid (SIF) and simulated gastric fluid (SGF) to evaluate gastric stability of the peptide compounds disclosed herein.
For clarification, the term “Pepsin-SGF” refers to a solution of simulated gastric fluid containing pepsin whereas “SGF media” refers to a solution of simulated gastric fluid without pepsin. Pepsin-SGF was prepared by dissolving 320 mg Pepsin (Merck Millipore) in 100 mL SGF media concentrate (PROSENSE).
(§3) Peptide compounds were first dissolved at 1 mM stock concentration in 0.01 HCl (+/−10% of DMSO) and were than diluted further with water to a stock concentration of 20 μM. Final peptide concentration in the incubation was 1 μM.
(§4) To 76 μL of the Pepsin-SGF buffer, 4 μL of the 20 μM peptide stock solution was added and incubated at 37° C. At each timepoint (0, 60, 120 and 240 minutes) the reaction was quenched with addition of 80 μL Ethanol (0,1% HCOOH). The samples were centrifuged for 20 minutes and an aliquot of the supernatant 100 μL were transferred to a LoBind-MTP plate and analyzed by LCMS/MS. The peak area response was calculated at each time point for each test compound. As internal reference, the peak area response of the same test compound at T0 was calculated. The percentage remaining at each timepoint was calculated based on the peak area response ratio of the test compound at T0. Time 0 was set to 100%, and all later timepoints were calculated relative to time 0.
as §4, with “(0.1%” for “(0,1%”

[3] = test system: IL-23 induced STAT3 signaling (IL-23 receptor) in HEK-Blue IL-23 cells; experiment: Inhibition of IL-23 induced STAT3 signaling in HEK-Blue IL-23 cells, SEAP reporter (Table 9); format: cell-based; settings: human IL23 0.25 ng/ml, overnight, read-out: Inhibition of IL-23 induced pSTAT3 (IC50 nM)
Source text: HEK-Blue™ IL-23 cells (INVIVOGEN) are designed for the detection of bioactive human (hIL-23) and murine IL-23 (mIL-23) by monitoring the activation of the STAT3 pathway. Binding of IL-23 to its receptor on the surface of HEK-Blue™ IL-23 cells triggers a signaling cascade leading to the activation of STAT3 and the subsequent production of secreted embryonic alkaline phosphatase (SEAP). This can be readily assessed using QUANTI-Blue™ Solution, a SEAP detection reagent.
HEK-Blue™ IL-23 cells were cultured as described by INVIVOGEN.
On the first day of assay 10 μL of the HEK-BLUE IL23 cell suspension (final concentration: 10,000 cells/well) and 10 μl of serially diluted peptides solutions were dispensed into a 384-well assay plate. After pre-incubation of the reaction mixtures at 37° C./5% CO2/95% humidity for 60 minutes, 10 μl of the humanIL23 cytokine (final concentration: 0.25 ng/ml) was added to each well for the STAT3 signaling activation. The plate was incubated overnight at 37° C./5% CO2/95% humidity.
On the second day 20 μl per well of QUANTI-BLUE detection solution (prepared according to the manufacture instruction) was dispensed into a new 384-well plate and followed by the transfer of 5 μl supernatant of the overnight incubated cell/sample mixtures. After incubation of 45 min at room temperature signals were measured with PHERASTAR (BMG) at OD 620-655 nm.
Dose response data were fitted with XLfit.

[4] = Protease stability in simulated intestinal fluids (FaSSIF) (Table 7); format: in vitro ADME; settings: fassif with pancreatin, 37° C.; for remaining at 1 h, 1 µM: 60 min, read-out: Remaining percentage of peptide compound, FaSSIF 60 (min); for remaining at 2 h, 1 µM: 120 min, read-out: Remaining percentage of peptide compound, FaSSIF 120 (min); for remaining at 4 h, 1 µM: 240 min, read-out: Remaining percentage of peptide compound, FaSSIF 240 (min)
Protocol: as §2
Similarly, the term “Pancreatin-SIF” refers to a solution of simulated intestinal fluid containing pancreatin whereas “SIF-media” refers to a solution of simulated intestinal fluid without pancreatin. Pancreatin-SIF was prepared by dissolving 1 mg Pancreatin (MP Biomedicals) in 10 mL SIF media concentrate (PROSENSE).
as §3
as §4, with “(0.1%” for “(0,1%”

[5] = Chemical stability (relative purity loss) of peptide compounds in buffer formulations (Table 6); format: physicochemical; settings: 2° C. and 37° C.
Protocol: Purity of a peptide batch was determined through UHPLC/MS method A prior to chemical stability measurement.
as §1, with “stability assessment,” for “solubility testing”, “0.5” for “1”, “acetonitrile” for “dimethyl sulfoxide”
The following buffer systems were applied: • Solubility buffer system A): 50 mM HCl pH 1.2+Acetonitrile (3:1). • Solubility buffer system B): 50 mM phosphate buffer pH 6.5+Acetonitrile (3:1). • Solubility buffer system C): 50 mM phosphate buffer pH 7.4+Acetonitrile (3:1). • Prepared solutions were stored for 24 hours at 2° C. and 37° C.
After this time course, the samples were centrifuged for 15 min at 2500 RCF to create a 1:5 dilution of the supernatant. Then 2 μl of the dilution were analyzed with UHPLC-UV applying method A.
The chemical stability was rated through the relative loss of purity calculated by the equation: […]

[6] = Buffer pH 1.1 (head; method: 50 mM HCl pH 1.2), 2 h agitation, read-out: Solubility, Buffer pH 1.1
[7] = aqueous buffer, 50 mM phosphate buffer pH 6.5, 2 h agitation, read-out: Solubility, Buffer pH 6.5
[8] = aqueous buffer, 50 mM phosphate buffer pH 7.4, 2 h agitation, read-out: Solubility, Buffer pH 7.4
[9] = 50 mM phosphate buffer pH 6.5 + acetonitrile (3:1), read-out: Chemical stability (relative purity loss), Buffer pH 6.5
[10] = 50 mM phosphate buffer pH 7.4 + acetonitrile (3:1), read-out: Chemical stability (relative purity loss), Buffer pH 7.4
[11] = 50 mm hcl + acetonitrile, Buffer pH 1.1 (head; method: 50 mM HCl pH 1.2 + acetonitrile 3:1), read-out: Chemical stability (relative purity loss), Buffer pH 1.1

- solubility at 2 h [1, 6]: ≥ 940 µg/mL
- solubility at 2 h [1, 7]: ≥ 890 µg/mL
- solubility at 2 h [1, 8]: 840 µg/mL (≈ 533 µM)
- remaining at 1 h, 1 µM [2]: 98%
- remaining at 1 h, 1 µM [4]: 88%
- remaining at 2 h, 1 µM [4]: 87%
- remaining at 4 h, 1 µM [4]: 82%
- degraded at 24 h [5, 9]: 0%
- degraded at 24 h [5, 10]: 0%
- degraded at 24 h [5, 11]: 6.2%
Structure (SMILES): CN(C)CCOc1ccc(C[C@@H]2NC(=O)C3(CCOCC3)NC(=O)[C@H](CCC(N)=O)NC(=O)[C@H](Cc3cn(C)c4ccccc34)NC(=O)CCCCN(C)CCCCN(C)CCCC[C@@H](C(=O)NCC(=O)N[C@@H](Cc3cccnc3)C(=O)N(C)CC(N)=O)NC(=O)C(C)(C)NC(=O)[C@H](Cc3ccc4ccccc4c3)NC2=O)cc1 [compound 30] ([Trp(1-Me)]Q[Thp]Y(Me2NCH2CH2)[2Nal][Aib][Lys(Me,(CH2)4NMe(CH2)4CO)]G[3Pal][Sar]-NH2; lactam N-7)
- IC50 [3]: 3.86 nM

- solubility at 2 h [1, 6]: ≥ 960 µg/mL
- solubility at 2 h [1, 7]: ≥ 1050 µg/mL
- solubility at 2 h [1, 8]: ≥ 890 µg/mL
- remaining at 1 h, 1 µM [2]: 100%
- remaining at 1 h, 1 µM [4]: 88%
- remaining at 2 h, 1 µM [4]: 85%
- remaining at 4 h, 1 µM [4]: 85%
- degraded at 24 h [5, 9]: 0%
- degraded at 24 h [5, 10]: 0%
- degraded at 24 h [5, 11]: 6%
Structure (SMILES): Cc1cccc2c(C[C@@H]3NC(=O)CCCCN(C)CCCCN(C)CCCC[C@@H](C(=O)N[C@@H](CC(N)=O)C(=O)N[C@@H](Cc4cccnc4)C(=O)N(C)CC(N)=O)NC(=O)C(C)(C)NC(=O)[C@H](Cc4ccc5ccccc5c4)NC(=O)[C@H](Cc4ccc(OCCN(C)C)cc4)NC(=O)C4(CCOCC4)NC(=O)[C@H](CCC(N)=O)NC3=O)c[nH]c12 [compound 46] ([Trp(7-Me)]Q[Thp]Y(Me2NCH2CH2)[2Nal][Aib][Lys(Me,(CH2)4NMe(CH2)4CO)]N[3Pal][Sar]-NH2; lactam N-7)
- IC50 [3]: 0.72 nM

- solubility at 2 h [1, 6]: ≥ 970 µg/mL
- solubility at 2 h [1, 7]: ≥ 1050 µg/mL
- solubility at 2 h [1, 8]: ≥ 1220 µg/mL
- remaining at 1 h, 1 µM [2]: 71%
- remaining at 1 h, 1 µM [4]: 96%
- remaining at 2 h, 1 µM [4]: 84%
- remaining at 4 h, 1 µM [4]: 75%
- degraded at 24 h [5, 9]: 0%
- degraded at 24 h [5, 10]: 0.7%
- degraded at 24 h [5, 11]: 5.2%
Structure (SMILES): CN(C)CCOc1ccc(C[C@@H]2NC(=O)C3(CCOCC3)NC(=O)[C@H](CCC(N)=O)NC(=O)[C@H](Cc3c[nH]c4ccccc34)NC(=O)CCCCN(C)CCCCN(C)CCCC[C@@H](C(=O)N[C@@H](CO)C(=O)N[C@@H](Cc3cccnc3)C(=O)N(C)CC(N)=O)NC(=O)C3(CCOCC3)NC(=O)[C@H](Cc3ccc4ccccc4c3)NC2=O)cc1 [compound 43] (WQ[Thp]Y(Me2NCH2CH2)[2Nal][Thp][Lys(Me,(CH2)4NMe(CH2)4CO)]S[3Pal][Sar]-NH2; lactam N-7)
- IC50 [3]: 2.02 nM

The remaining lines, values behind:

Structure (SMILES): Cc1cccc2c(C[C@@H]3NC(=O)CCCCCCCCCCNC(=O)CC[C@@H](C(=O)N[C@@H](CC(N)=O)C(=O)N[C@@H](Cc4cccnc4)C(=O)N(C)CC(N)=O)NC(=O)C(C)(C)NC(=O)[C@H](Cc4ccc5ccccc5c4)NC(=O)[C@H](Cc4ccc(OCCN(C)C)cc4)NC(=O)C(C)(C)NC(=O)[C@H](CCC(N)=O)NC3=O)c[nH]c12 [compound 35] ([Aun][Trp(7-Me)]Q[Aib]Y(Me2NCH2CH2)[2Nal][Aib]EN[3Pal][Sar]-NH2; lactam N-8)
- solubility at 2 h [1, 6]: ≥ 870 µg/mL
- solubility at 2 h [1, 7]: 80 µg/mL (≈ 50.8 µM)
- solubility at 2 h [1, 8]: 40 µg/mL (≈ 25.4 µM)
- remaining at 1 h, 1 µM [2]: 86%
- IC50 [3]: 0.6 nM
- remaining at 1 h, 1 µM [4]: 89%
- remaining at 2 h, 1 µM [4]: 88%
- remaining at 4 h, 1 µM [4]: 87%
- degraded at 24 h [5, 9]: 0%
- degraded at 24 h [5, 10]: 0%
- degraded at 24 h [5, 11]: 7.4%

Structure (SMILES): CC(=O)NCCCC[C@@H]1NC(=O)[C@H](Cc2c[nH]c3c(C)cccc23)NC(=O)CCCCCN(C)CCCCN(C)CCCC[C@@H](C(=O)N[C@@H](CC(N)=O)C(=O)N[C@@H](Cc2cccnc2)C(=O)N(C)CC(N)=O)NC(=O)[C@](C)(CCCCN(C)C)NC(=O)[C@H](Cc2ccc3ccccc3c2)NC(=O)[C@H](Cc2ccc(OCCN(C)C)cc2)NC(=O)C2(CCOCC2)NC1=O [compound 34] ([Trp(7-Me)]K(Ac)[Thp]Y(Me2NCH2CH2)[2Nal][αMeLys(Me2)][Lys(Me,(CH2)4NMe(CH2)5CO)]N[3Pal][Sar]-NH2; lactam N-7)
- solubility at 2 h [1, 6]: ≥ 1200 µg/mL
- solubility at 2 h [1, 7]: ≥ 1120 µg/mL
- solubility at 2 h [1, 8]: ≥ 1120 µg/mL
- remaining at 1 h, 1 µM [2]: 94%
- IC50 [3]: 1.34 nM
- remaining at 1 h, 1 µM [4]: 98%
- remaining at 2 h, 1 µM [4]: 98%
- remaining at 4 h, 1 µM [4]: 100%
- degraded at 24 h [5, 9]: 0%
- degraded at 24 h [5, 10]: 0%
- degraded at 24 h [5, 11]: 0%
